# Test results reported in US20180326022A1, “COMPOSITIONS AND METHODS FOR IMPROVING HEART FUNCTION AND TREATING HEART FAILURE” (The Trustees of the University of Pennsylvania, priority 2017, published 2018).
# What was measured:
# Assay type in all cases: cell-based
# [1] = system: detyrosinated tubulin; assay: Western blotting of cardiomyocyte lysates (TTL, α-, detyr-, tyr-tubulin); details: rat cardiomyocytes; PTL treatment; shTTL; short term EpoY
# Procedure: (§1) Viral constructs were permitted to express for 24-72 hours with Moi=100-200. Parthenolide (Fisher Scientific NC9013142) treatment was carried out at room temperature for 2 hours at 10 μM. All experiments were performed within 48 hours of isolation, except those involving shTTL, which were allowed 72 hours to improve knockdown efficiency.
# For analysis of proteins expression levels quantitative Western blots were performed using infrared fluorescence imaging on an Odyssey Imager (LI-COR). Cell homogenates were prepared in ice-cold IGEPAL lysis buffer. After 1 freezing cycle lysates were spun at 18,000×g for 5 min. Aliquots of supernatants were mixed with 4× sample buffer (LI-COR, 928-40004) containing 10% BME, boiled for 6 min., and resolved on sodium dodecyl sulfate (SDS)-polyacrylamide gel electrophoresis Tris-glycine gels (Bio-Rad). Proteins were transferred to a membrane on Mini Trans-Blot Cell (Bio-Rad), blocked 1 h in Odyssey Blocking Buffer (TBS) (LI-COR, 927-50000), and probed with the corresponding primary antibody (see list below) for 2 h at room temperature. Membranes were then rinsed with TBST 4 times for 5 min, and incubated with secondary antibodies (below) for 1.5 h at room temperature. Membranes were rinsed again with TBST and then imaged on Odyssey Imager. Image analysis was performed using Image Studio Lite software (LI-COR). Fluorescent band intensity was always normalized to GAPDH loading control. Analysis of human tissue samples for levels of detyrosinated tubulin was performed blinded to the experimental groups.
# [2] = system: human myocytes; assay: Nanoindentation stiffness measurements; details: failing human myocytes; 10 μM, 2 hours
# Procedure: Viable myocytes were concentrated by gravity (5-7 min) and supernatant was aspirated to remove dead cells. Myocytes were resuspended in NT solution containing 1 mM Ca^2+ and concentrated by gravity (5-7 min) again. Cardiomyocytes used acutely were maintained in NT solution for up to 6 hours. Myocytes were treated with 10 μM parthenolide (Fisher Scientific NC9013142 or Sigma P0667) or 10 μM colchicine (Sigma) at room temperature in NT solution for 2 hours. Experiments were performed within 6 hours of isolation, except for those involving viral transduction in cultured cells.
# MatTek glass bottom dish was coated 5 μl of 0.5 mg/ml laminin and air dried for 10 min. Culture medium was F-10 (1×) Nutrient Mixture (Ham) [+] L-Glutamine (Life Technologies, 11550-043) supplemented with insulin-transferrin selenium-X (Gibco, 51500-056), 20 mM HEPES, 1 μg/μl primocin (Invivogen, ant-pm-1), 0.4 mM extra CaCl2, 5% FBS, 25 μM cytochalasin D (Cayman, 11330). Viable myocytes were concentrated and a proper amount of medium was added in culture so that neighboring cells were not in direct contact. […]
# Mechanical properties at the microscopic scale were measured using nanoindentation (Piuma, Optics11, The Netherlands). […] The Young's moduli were calculated automatically by the software, by fitting the force vs. indentation curve to the Hertz equation. […]
# [3] = system: rat adult cardiomyocytes; assay: Immunofluorescence quantification of α- and dTyr-tubulin fraction of cell area
# Procedure: as §1
# Cells were fixed in 4% PFA for 15 minutes and permeabilized in 0.5% TritonX-100 for 4 minutes at room temperature. Alternately cells were fixed in methanol at −20° C. for 7 minutes. After washing, cells were placed in blocking buffer (5% BSA and 0.1% TritonX-100 in PBS) for 1 hour, then labeled with primary antibodies (below) for 24-48 hours at 4° C. Cells were then washed 4× in blocking buffer, labeled with secondary antibodies (below) at room temperature and washed 3× in blocking buffer. Stained cells were mounted on mouse laminin coated #1.5 coverslips in Prolong Gold Antifade Mountant (Life Technologies P36934) for imaging.
# Confocal imaging was carried out on a Zeiss 780 laser scanning confocal scan head operating on an Axiovert Z1 inverted microscope equipped with a 40× oil 1.4 NA objective. High-speed super resolution imaging was carried out on a Zeiss 880 Airyscan confocal with a 63×1.4 oil NA objective (FIG. 8A-FIG. 8E, Airyscan application note can be found at http://www.zeiss.com/microscopy/enus/products/confocal-microscopes/Ism-880-with-airyscan-.html#downloads). Image analysis was performed using ZEN Black software for Airyscan processing, which involves signal integration from the 32 separate sub-resolution detectors in the Airyscan detector and subsequent deconvolution of this integrated signal (FIG. 8A-FIG. 8E). Additional signal processing was performed in Image J (NIH). For calculating the microtubule fraction of cell area (FIG. 2B-FIG. 2C), image analysis was performed blinded to the experimental treatment groups. A 1.5 μm max intensity projection was produced from 3 0.5 μm confocal z-sections. […] From the resulting binary images (FIG. 9B), the microtubule positive fraction of the total cell area was calculated for alpha and detyrosinated tubulin (FIG. 2C).
# [4] = rat cardiomyocytes, thresholded immunofluorescence, TTL vs null, PTL vs ctrl
smiles,measurement,setting,value
"C=C1C(=O)O[C@H]2[C@H]1CC/C(C)=C/CC[C@@]1(C)O[C@@H]21 [PTL, 4,5-epoxygermacra-1(10),11(13)-dien-12,6-olactone]",alpha / total tubulin levels (western blot),[1],no significant change
same,detyrosinated tubulin (western blot),[1],significant drop
same,viscoelasticity (Emax and EΔ),[2],robustly reduced viscoelasticity
same,effect on MT network density,[3]; PTL treatment,no effect
same,"reduction in the amount/fraction of polymerized, detyrosinated MTs","[3]; isolated rat cardiomyocytes, immunofluorescence and immunoblot",2 fold
same,Detyr (% cell area),[3]; [4],30.8 % cell area
same,α-tub (% cell area),[3]; [4],67.8 % cell area
